The source made the active and inactive calls.
Columns and labels:
[1] = molecular target: T1, Peroxisome proliferator-activated receptor gamma/Nuclear receptor coactivator 2 (Homo sapiens, UniProt P37231); assay type: functional
[2] = molecular target: T2, Peroxisome proliferator-activated receptor gamma/Nuclear receptor coactivator 1 (Homo sapiens, UniProt P37231); assay type: functional
[3] = molecular target: T3, Peroxisome proliferator-activated receptor gamma/Nuclear receptor coactivator 3 (Homo sapiens, UniProt P37231); assay type: functional
[4] = molecular target: T2, Peroxisome proliferator-activated receptor gamma/Nuclear receptor coactivator 1; test: (§1) TR-FRET dose response biochemical High Throughput Screening assay for agonists of the steroid receptor coactivator 1 (SRC-1) recruitment by the peroxisome proliferator-activated receptor gamma (PPAR gamma): non-selective agonists. [Related pubchem assays (depositor defined):AID1300, AID1808, AID504735, AID631]; assay type: protein assay
[5] = molecular target: T3, Peroxisome proliferator-activated receptor gamma/Nuclear receptor coactivator 3; test: as §1, with “3 (SRC-3)” for “1 (SRC-1)”, “assays: 1301 (Confirmation screen.), 1048 (Primary screen.)]” for “assays (depositor defined):AID1300, AID1808, AID504735, AID631]”; assay type: functional
[6] = molecular target: T1, Peroxisome proliferator-activated receptor gamma/Nuclear receptor coactivator 2; test: TR-FRET dose response biochemical High Throughput Screening assay for agonists of the steroid receptor coactivator 2 (SRC-2) recruitment by the peroxisome proliferator-activated receptor gamma (PPAR gamma): non-selective agonists. [Related pubchem assays: 1297, 1032 ]; assay type: functional
[7] = molecular target: T4, Short transient receptor potential channel 4 (Mus musculus, UniProt Q9QUQ5); test: mouse TRPC4 channel inhibitors, dose response, cell-based, HEK293 TRPC4/mu-opioid, Fluo-4 calcium (AID 434942); assay type: functional;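 also: potency of inhibitors blocking the TRPC4 calcium response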
T4 sequence (Q9QUQ5 whole entry): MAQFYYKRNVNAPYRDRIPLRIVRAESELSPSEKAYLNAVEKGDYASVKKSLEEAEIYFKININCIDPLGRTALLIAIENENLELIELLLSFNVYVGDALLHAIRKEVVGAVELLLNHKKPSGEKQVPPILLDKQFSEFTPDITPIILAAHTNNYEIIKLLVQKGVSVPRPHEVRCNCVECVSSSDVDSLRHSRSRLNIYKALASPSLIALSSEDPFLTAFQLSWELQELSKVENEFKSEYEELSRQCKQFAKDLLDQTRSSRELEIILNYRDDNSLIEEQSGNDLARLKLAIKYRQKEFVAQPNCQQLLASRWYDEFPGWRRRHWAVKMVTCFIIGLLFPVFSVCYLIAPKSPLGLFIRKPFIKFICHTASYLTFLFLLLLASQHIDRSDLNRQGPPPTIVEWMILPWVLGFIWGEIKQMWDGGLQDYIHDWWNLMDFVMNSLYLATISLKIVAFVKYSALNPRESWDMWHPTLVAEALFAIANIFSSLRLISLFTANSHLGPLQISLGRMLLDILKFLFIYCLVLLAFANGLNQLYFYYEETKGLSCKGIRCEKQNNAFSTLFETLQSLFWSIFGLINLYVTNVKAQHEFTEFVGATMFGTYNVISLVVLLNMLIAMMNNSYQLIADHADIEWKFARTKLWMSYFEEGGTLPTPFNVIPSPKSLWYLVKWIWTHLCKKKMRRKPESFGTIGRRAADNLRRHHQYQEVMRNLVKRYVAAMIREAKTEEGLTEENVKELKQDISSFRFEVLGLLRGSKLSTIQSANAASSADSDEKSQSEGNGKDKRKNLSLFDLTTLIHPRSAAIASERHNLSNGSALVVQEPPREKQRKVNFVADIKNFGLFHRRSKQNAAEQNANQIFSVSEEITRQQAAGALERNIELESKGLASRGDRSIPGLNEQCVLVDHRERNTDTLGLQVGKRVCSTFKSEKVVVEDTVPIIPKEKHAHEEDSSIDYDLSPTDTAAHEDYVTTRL

[8] = molecular target: T4, Short transient receptor potential channel 4; test: mouse TRPC4 channel activators, dose response, cell-based, HEK293 TRPC4/mu-opioid, Fluo-4 calcium (AID 434937); assay type: functional
[9] = molecular target: T5, Small ubiquitin-related modifier 1 (Homo sapiens, UniProt P63165); test: inhibitors of SUMO1 peptide binding, dose response, biochemical, fluorescence polarization, uHTS hits (AID 624382); assay type: functional; details: read-out: IC50_Mean
[10] = molecular target: T5, Small ubiquitin-related modifier 1; test: inhibitors of SUMO1 partner interactions, dose response, biochemical, FRET (AID 624383); assay type: functional; details: read-out: IC50_Mean
[11] = molecular target: T6, DNA repair and recombination protein RAD54-like (Homo sapiens, UniProt Q92698); test: inhibitors of human RAD54 branch migration, confirmation, biochemical, fluorescence, cherry-picked samples, dose series (AID 651657); assay type: functional
T6 sequence (Q92698 whole entry): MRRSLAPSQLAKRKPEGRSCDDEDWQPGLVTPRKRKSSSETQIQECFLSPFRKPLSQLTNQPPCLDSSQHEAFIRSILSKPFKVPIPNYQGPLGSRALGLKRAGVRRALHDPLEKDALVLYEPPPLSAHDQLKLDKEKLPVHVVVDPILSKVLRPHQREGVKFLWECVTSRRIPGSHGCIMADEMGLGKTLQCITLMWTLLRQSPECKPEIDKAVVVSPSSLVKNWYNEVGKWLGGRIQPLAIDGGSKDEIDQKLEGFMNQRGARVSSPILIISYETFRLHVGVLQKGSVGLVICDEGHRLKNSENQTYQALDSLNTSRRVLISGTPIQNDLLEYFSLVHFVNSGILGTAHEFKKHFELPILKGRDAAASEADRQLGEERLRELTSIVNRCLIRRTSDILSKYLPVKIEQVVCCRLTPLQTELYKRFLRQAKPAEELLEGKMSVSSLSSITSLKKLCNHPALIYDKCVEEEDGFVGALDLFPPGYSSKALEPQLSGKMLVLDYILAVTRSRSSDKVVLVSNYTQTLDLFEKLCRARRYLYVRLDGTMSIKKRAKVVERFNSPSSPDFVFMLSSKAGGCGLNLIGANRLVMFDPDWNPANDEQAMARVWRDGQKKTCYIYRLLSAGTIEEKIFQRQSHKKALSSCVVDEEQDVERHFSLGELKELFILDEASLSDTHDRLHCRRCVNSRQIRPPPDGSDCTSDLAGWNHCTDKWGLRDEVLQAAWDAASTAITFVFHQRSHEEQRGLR

[12] = molecular target: Luciferin 4-monooxygenase (Photinus pyralis, UniProt P08659); test: Counter Screen for Luciferase-based Assay Positives. [Related pubchem assays: 620, 618, 411 ]
HT-1080 = test: cytotoxicity in HT1080 fibrosarcoma cells, cell-based, fluorescence readout (AID 620); assay type: functional; details: Homo sapiens
[13] = molecular target: T7, Voltage-gated N-type calcium channel alpha-1B subunit/Amyloid beta A4 precursor protein-binding family A member 1 (Homo sapiens, UniProt Q00975+Q02410); assay type: protein assay
[14] = molecular target: T7, Voltage-gated N-type calcium channel alpha-1B subunit/Amyloid beta A4 precursor protein-binding family A member 1; assay type: protein assay; remark: listed apart in the source
Cytochrome P450 1A2 = molecular target: T8, Cytochrome P450 1A2 (Homo sapiens, UniProt P05177);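 also: PubChem cytochrome P450 panel assay, CYP1A2 panel member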
T8 sequence (P05177 whole entry): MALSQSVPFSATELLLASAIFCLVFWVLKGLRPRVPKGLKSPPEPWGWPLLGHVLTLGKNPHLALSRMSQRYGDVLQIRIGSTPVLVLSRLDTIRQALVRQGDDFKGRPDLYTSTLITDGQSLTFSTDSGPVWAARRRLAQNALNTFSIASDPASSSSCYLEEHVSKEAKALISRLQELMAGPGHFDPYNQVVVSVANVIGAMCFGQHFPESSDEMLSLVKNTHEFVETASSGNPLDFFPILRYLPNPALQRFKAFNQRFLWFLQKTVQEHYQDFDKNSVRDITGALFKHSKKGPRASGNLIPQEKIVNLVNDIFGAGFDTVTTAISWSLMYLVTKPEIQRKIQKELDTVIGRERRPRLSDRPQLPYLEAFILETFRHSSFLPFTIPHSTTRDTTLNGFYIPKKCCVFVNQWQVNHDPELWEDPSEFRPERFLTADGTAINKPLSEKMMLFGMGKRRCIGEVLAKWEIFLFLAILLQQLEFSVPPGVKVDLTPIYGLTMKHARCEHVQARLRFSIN

Cytochrome P450 2C9 = Cytochrome P450 2C9 (Homo sapiens, UniProt P11712)
[15] = inhibitors of intracellular T. cruzi replication, confirmation, NIH3T3 host cells, beta-gal luminescence (AID 2044); assay type: functional, cell-based;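 also: intracellular parasites grown in NIH/3T3 mouse fibroblasts as host cells; luminescent beta-galactosidase reporter signal from transgenic T. cruzi replicating inside host cells; inhibitors lower the luminescence signal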
[16] = cytotoxicity toward NIH3T3 fibroblasts, dose response, counter-screen, cell-based, ATP luminescence, mouse fibroblasts (AID 2010); assay type: functional;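 also: cells exposed to compound for about 90 hours before reading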
[17] = molecular target: T9, DNA repair protein RAD52 homolog (Homo sapiens, UniProt P43351); assay type: functional, biochemical
T9 sequence (P43351 whole entry): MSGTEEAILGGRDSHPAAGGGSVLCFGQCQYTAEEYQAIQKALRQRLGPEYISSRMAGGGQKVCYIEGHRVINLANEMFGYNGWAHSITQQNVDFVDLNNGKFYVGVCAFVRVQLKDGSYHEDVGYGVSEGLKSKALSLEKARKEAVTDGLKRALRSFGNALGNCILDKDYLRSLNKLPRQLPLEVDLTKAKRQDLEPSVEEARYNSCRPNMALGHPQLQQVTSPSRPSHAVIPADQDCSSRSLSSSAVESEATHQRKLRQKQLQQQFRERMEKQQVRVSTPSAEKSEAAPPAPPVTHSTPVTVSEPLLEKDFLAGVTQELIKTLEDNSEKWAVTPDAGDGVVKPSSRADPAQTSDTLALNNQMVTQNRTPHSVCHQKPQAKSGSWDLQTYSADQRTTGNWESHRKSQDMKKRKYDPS

[18] = inhibitors of HIV Env-driven cell fusion, dose response, cherry-pick (AID 652057); assay type: functional, cell-based
[19] = inhibitors of clade B AD8 Env fusion, dose response, cell-based, cherry-pick (AID 652062); assay type: functional;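 also: luciferase signal from cell-cell fusion driven by HIV-1 clade B AD8 Env; potency is for inhibitors of fusion seen as a drop in luminescence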

T2 sequence (P37231 whole entry): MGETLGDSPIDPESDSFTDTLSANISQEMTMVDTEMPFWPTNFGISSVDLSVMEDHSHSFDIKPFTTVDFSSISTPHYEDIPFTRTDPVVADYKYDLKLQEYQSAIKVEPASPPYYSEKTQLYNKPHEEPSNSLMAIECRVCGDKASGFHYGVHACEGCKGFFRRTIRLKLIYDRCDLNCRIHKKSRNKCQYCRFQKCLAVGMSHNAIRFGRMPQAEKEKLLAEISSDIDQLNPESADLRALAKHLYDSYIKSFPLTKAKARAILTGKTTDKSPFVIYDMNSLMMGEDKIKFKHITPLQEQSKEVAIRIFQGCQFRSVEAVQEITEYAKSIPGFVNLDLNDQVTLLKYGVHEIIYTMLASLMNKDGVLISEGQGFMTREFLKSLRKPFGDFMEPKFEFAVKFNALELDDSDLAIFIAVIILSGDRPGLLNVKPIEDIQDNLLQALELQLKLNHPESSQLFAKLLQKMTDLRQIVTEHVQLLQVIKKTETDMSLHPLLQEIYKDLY
T2 sequence (Q15788 whole entry, further chain): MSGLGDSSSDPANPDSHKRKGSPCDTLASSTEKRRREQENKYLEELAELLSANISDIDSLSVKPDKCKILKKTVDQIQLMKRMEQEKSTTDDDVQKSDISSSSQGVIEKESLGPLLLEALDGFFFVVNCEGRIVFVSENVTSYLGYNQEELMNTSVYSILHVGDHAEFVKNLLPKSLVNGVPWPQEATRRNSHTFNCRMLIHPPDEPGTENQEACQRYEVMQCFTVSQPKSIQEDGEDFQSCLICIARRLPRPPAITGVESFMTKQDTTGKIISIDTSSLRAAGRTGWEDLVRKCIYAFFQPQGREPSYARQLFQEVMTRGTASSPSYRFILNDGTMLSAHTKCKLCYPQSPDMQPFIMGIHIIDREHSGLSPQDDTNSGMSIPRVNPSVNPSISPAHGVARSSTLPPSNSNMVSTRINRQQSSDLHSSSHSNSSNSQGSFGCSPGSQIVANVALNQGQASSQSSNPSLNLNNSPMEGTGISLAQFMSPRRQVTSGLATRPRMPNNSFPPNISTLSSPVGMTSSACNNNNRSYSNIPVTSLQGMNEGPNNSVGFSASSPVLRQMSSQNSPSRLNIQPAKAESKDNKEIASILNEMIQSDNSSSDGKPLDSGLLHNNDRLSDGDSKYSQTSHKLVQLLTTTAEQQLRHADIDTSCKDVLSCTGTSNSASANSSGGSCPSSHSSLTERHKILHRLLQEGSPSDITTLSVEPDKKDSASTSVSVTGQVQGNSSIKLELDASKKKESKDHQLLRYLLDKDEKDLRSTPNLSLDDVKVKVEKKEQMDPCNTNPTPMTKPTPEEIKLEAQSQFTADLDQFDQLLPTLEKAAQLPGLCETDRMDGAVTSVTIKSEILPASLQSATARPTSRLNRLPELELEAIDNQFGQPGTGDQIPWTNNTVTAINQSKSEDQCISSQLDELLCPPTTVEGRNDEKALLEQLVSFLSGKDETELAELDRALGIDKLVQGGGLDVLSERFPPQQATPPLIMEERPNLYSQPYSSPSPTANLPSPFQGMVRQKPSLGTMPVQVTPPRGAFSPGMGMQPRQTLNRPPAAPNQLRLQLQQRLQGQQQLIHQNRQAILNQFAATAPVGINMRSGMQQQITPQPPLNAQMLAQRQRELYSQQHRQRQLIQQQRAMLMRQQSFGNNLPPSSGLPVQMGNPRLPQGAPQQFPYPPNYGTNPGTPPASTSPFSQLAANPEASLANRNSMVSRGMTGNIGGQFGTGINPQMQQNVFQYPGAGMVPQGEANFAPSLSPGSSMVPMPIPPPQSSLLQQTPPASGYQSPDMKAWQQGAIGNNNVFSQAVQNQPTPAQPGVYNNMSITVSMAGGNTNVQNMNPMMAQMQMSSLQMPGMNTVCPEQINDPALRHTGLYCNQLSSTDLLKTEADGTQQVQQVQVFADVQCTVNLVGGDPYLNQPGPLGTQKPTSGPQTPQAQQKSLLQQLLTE
T3 sequence (P37231 whole entry): as the sequence (P37231 whole entry) above
T3 sequence (Q9Y6Q9 whole entry, further chain): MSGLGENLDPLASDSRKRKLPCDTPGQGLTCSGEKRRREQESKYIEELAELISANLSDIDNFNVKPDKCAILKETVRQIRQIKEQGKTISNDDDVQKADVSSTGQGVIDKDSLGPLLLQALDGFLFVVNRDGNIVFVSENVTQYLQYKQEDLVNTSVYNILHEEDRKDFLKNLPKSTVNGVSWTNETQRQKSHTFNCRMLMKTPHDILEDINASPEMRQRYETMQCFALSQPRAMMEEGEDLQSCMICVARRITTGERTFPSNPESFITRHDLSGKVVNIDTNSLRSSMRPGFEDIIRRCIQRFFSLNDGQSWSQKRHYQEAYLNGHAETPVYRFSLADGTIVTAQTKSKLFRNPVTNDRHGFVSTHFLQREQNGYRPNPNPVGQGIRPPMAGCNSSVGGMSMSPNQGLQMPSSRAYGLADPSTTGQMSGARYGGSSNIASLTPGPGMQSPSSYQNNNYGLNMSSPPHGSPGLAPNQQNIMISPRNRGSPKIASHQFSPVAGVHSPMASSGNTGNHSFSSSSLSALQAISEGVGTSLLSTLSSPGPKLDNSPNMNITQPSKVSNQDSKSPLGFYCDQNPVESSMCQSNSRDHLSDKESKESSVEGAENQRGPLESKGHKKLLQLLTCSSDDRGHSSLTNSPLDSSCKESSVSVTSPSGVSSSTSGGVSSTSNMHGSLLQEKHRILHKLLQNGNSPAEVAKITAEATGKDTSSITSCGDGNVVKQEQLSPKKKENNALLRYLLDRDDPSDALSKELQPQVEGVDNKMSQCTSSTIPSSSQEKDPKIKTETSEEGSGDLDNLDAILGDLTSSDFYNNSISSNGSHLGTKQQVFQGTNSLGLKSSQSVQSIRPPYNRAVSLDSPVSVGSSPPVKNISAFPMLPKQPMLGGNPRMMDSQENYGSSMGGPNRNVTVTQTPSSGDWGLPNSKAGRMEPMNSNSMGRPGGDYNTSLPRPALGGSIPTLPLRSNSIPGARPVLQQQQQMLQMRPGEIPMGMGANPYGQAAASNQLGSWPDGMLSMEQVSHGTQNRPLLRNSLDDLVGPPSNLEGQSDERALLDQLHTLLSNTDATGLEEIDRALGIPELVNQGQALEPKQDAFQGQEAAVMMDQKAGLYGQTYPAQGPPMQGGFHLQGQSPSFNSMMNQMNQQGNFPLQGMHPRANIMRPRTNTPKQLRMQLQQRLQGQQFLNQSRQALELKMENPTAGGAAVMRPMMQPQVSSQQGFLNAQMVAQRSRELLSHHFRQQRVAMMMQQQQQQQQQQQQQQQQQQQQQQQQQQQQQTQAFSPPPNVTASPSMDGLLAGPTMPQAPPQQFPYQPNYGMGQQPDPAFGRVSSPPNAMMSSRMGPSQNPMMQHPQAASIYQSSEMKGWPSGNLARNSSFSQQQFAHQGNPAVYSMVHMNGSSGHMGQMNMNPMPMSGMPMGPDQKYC
Luciferin 4-monooxygenase, sequence (P08659 whole entry): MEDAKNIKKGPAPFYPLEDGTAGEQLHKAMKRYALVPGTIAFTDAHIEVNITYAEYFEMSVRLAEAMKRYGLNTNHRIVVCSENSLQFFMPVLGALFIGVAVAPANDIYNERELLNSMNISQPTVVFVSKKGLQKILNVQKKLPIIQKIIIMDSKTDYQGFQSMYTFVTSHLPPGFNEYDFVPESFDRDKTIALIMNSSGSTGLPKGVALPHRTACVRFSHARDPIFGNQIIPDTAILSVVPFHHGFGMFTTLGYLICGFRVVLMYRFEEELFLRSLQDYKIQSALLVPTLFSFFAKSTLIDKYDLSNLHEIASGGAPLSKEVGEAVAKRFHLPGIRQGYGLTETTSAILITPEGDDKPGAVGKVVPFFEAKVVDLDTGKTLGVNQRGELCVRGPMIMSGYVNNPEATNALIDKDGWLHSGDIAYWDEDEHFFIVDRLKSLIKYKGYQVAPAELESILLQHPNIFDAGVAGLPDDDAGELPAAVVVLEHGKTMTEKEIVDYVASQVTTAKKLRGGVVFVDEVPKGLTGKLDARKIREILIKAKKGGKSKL
T5 sequence (P63165 whole entry): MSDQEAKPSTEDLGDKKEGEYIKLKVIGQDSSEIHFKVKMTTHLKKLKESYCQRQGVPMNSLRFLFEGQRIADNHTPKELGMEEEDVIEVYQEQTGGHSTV
Cytochrome P450 2C9, sequence (P11712 whole entry): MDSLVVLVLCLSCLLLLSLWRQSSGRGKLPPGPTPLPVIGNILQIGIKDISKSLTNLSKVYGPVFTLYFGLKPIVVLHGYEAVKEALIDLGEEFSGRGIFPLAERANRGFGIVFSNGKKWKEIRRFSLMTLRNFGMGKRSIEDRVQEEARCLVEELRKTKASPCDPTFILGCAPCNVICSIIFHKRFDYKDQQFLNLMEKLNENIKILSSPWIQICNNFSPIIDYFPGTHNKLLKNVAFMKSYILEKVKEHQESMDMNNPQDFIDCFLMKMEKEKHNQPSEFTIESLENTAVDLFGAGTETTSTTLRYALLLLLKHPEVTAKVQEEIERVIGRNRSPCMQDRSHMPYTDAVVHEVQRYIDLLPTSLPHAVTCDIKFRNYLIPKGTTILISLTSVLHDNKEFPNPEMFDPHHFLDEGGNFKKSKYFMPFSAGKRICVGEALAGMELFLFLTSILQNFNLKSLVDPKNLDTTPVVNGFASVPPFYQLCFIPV

COc1ccc(Nc2nc(S(=O)(=O)c3ccc(C)cc3)c(Cl)s2)cc1
EC50 [1]: > 79.4 µM (not active) | EC50 [2]: > 79.4 µM (not active) | EC50 [3]: > 79.4 µM (not active)

COc1ccc2sc3c(O)nc4ccccc4c3c2c1
EC50 [1]: 12.1 µM (not active) | EC50 [2]: 11 µM (not active) | EC50 [3]: 11.2 µM (not active)

Cc1ccc(C(=O)C2=C(O)C(=O)N(c3ncccn3)C2c2ccc(Cl)cc2)o1 (stereo not drawn)
EC50 [4]: > 79.4 µM (inactive) | EC50 [5]: > 79.4 µM (not active) | EC50 [6]: 35.8 µM (not active)

O=[N+]([O-])c1cc2c(cc1CNCCc1ccc3c(c1)OCO3)OCO2
EC50 [7]: 1.06 µM (active) | EC50 [8]: 3.35 µM (active)

CN(C(=O)COC(=O)c1ccc(-c2ccc(O)cc2)cc1)C1CCS(=O)(=O)C1 (stereo not drawn)
IC50 [9]: > 66.6 µM (inactive) | IC50 [10]: 16.1 µM (active)

CCN1CCN(CCCNC(=O)c2cc3c(=O)oc4ccc(C)cc4c3s2)CC1
AC50 [11]: 36.3 µM (active)

c1ccc(-n2ncc3c2ncn2nc(-c4ccco4)nc32)cc1
EC50 [1]: 16.2 µM (not active) | EC50 [2]: > 79.4 µM (not active) | EC50 [3]: > 79.4 µM (not active)

COc1cccc(CNC(=O)CSc2cc(=O)n(C)c3ccccc23)c1
EC50 [4]: > 79.4 µM (inactive) | EC50 [5]: > 79.4 µM (not active) | EC50 [6]: > 79.4 µM (not active)

CC1CCc2nc(NC(=O)CN3CCN(Cc4ccc5c(c4)OCO5)CC3)sc2C1 (stereo not drawn)
EC50 [7]: 0.299 µM (active)

Cc1ccccc1Cn1nnc(-c2cccc(C(=O)O)c2)n1
EC50 [12]: > 100 µM (not active) | EC50 (HT-1080): > 50 µM (not active)

O=C(Nc1ccc(N2CCCCC2)cc1)c1ccccc1
EC50 [1]: > 79.4 µM (not active) | EC50 [2]: > 79.4 µM (not active) | EC50 [3]: > 79.4 µM (not active) | EC50 [12]: 1.28 µM (active) | EC50 (HT-1080): > 50 µM (not active)

N#Cc1c(Cl)nc(SCc2ccccc2)nc1-c1ccccc1
EC50 [4]: 4.02 µM (active) | EC50 [5]: > 79.4 µM (not active) | EC50 [6]: 5.16 µM (active)

Cc1cc(Cl)c2oc(C(=O)N(C)Cc3nccn3C)c(C)c2c1
EC50 [7]: 0.531 µM (active)

O=C(NCc1ccc2c(c1)OCO2)Nc1ccc2nsnc2c1
EC50 [1]: 17.8 µM (not active) | EC50 [2]: 20.4 µM (not active) | EC50 [3]: 29.8 µM (not active)

C=CCOc1ccc(/C=C2\SC(=S)N(N3CCOCC3)C2=O)cc1
IC50 [13]: 4.43 µM (active) | IC50 [14]: > 50 µM (inactive)

CCn1c(N2CCN(C(=O)Nc3ccc(F)cc3)CC2)nc2ccccc21
EC50 [8]: 0.944 µM (active) | AC50 (Cytochrome P450 1A2): 20 µM (inconclusive) | AC50 (Cytochrome P450 2C9): inconclusive

COc1cc(CNCCCN2CCOCC2)cc(Br)c1OCc1ccc(Cl)cc1
EC50 [15]: 0.531 µM (active) | EC50 [16]: 24 µM (active) | EC50 [7]: 5.96 µM (active)

CC1CC(C)CN(CCCNC(=O)Cn2cccc2C(=O)c2ccccc2)C1 (stereo not drawn)
EC50 [8]: 1.19 µM (active)

NCCCC[C@H]1CN=C(S)N1CCc1cc(C(F)(F)F)cc(C(F)(F)F)c1
AC50 [17]: 17.4 µM (active)

CCN1CCN(Cc2ccc(NC(=O)c3cc(NC(=O)c4cnnc5ccccc45)cc(OC)c3)cc2C(F)(F)F)CC1
AC50 [17]: 24.3 µM (active)

COc1ccc(-c2cc(NC=O)c3ncc(-c4cccc(C(=O)NCCN(C)C)c4)n3c2)cn1
AC50 [11]: 16.6 µM (active) | AC50 [17]: 5.69 µM (active)

COc1ccc(S(=O)(=O)N(C)C[C@@H]2Oc3ccc(NC(=O)C4CCCCC4)cc3CC(=O)N([C@@H](C)CO)C[C@@H]2C)cc1
AC50 [18]: 27.6 µM (active)

COCC(=O)N1C[C@@H](C)[C@H](OC)CN(C)C(=O)c2ccc(NC(=O)c3ccc(OC)cc3)cc2OC[C@@H]1C
AC50 [19]: 5.52 µM (active)

O=c1c2cn[nH]c2[nH]c(=S)n1-c1cccc2ccccc12
EC50 [4]: > 79.4 µM (inactive) | EC50 [5]: > 79.4 µM (not active) | EC50 [6]: > 79.4 µM (not active)
